Source: patent US20250129028A1, “COMPOUNDS AND METHODS FOR YAP/TEAD MODULATION AND INDICATIONS THEREFOR” (Opna Bio SA, priority 2022, published 2025)

test system: TEAD-dependent transcription; test: TEAD-dependent transcription cell-based reporter assay (MSTO-211H+12XGTIIC luciferase); set-up: species or system human; details: Homo sapiens; MSTO-211H+12XGTIIC cell line, luciferase signal normalized to cell viability, 24 hours compound incubation; read-out: MSTO-211H GMean IC50 (uM) Cell Assay Reporter Cell Variant: TEAD
Procedure, shortened: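 MSTO-211H mesothelioma cells stably carrying a 12xGTIIC TEAD-response-element luciferase reporter, treated with serial compound dilutions for 24 h at 37 °C. Luminescence normalized to CellTiter-Fluor viability signal; % inhibition versus DMSO and 20 μM K-975 controls, IC50 by nonlinear regression.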

SMILES	IC50 [µM]
CC(C)NC(=O)N1CCc2c(cccc2Oc2ccc(C(F)(F)F)cc2)C1 [P-0233, N-isopropyl-5-(4-(trifluoromethyl)phen-oxy)-3,4-dihydroisoquin-oline-2(1H)-carboxamide]	0.001 to 10
N=C(N)NCCC(=O)N1CCc2ccc(Oc3ccc(C(F)(F)F)cc3)cc2C1 [P-0106, 1-(3-oxo-3-(7-(4-(trifluoromethyl)phen-oxy)-3,4-dihydroisoquin-olin-2(1H)-yl)propyl)-guanidine]	0.001 to 10
CC(C)C(=O)N1CCc2c(cccc2Oc2ccc(C(F)(F)F)cc2)C1 [P-0234, 2-methyl-1-(5-(4-(trifluoromethyl)phen-oxy)-3,4-dihydroisoquin-olin-2(1H)-yl)propan-1-one]	0.001 to 10
CS(=O)(=O)CCNC(=O)N1CCc2c(cccc2-c2ccc(C(F)(F)F)cc2)C1 [P-0276, N-(2-(methylsulfonyl)-ethyl)-5-(4-(trifluoro-methyl)phenyl)-3,4-dihydroisoquinoline-2(1H)-carboxamide]	0.001 to 10
CS(=O)(=O)c1cc(C(=O)N2CCc3ccc(Oc4ccc(C(F)(F)F)cc4)cc3C2)ccn1 [P-0081, (2-(methylsulfonyl)pyr-idin-4-yl)(7-(4-(trifluoro-methyl)phenoxy)-3,4-dihydroisoquinolin-2(1H)-yl)methanone]	0.001 to 10
O=C(Cc1cnccc1O)N1CCc2ccc(Oc3ccc(C(F)(F)F)cc3)cc2C1 [P-0047, 2-(4-hydroxypyridin-3-yl)-1-(7-(4-(trifluoro-methyl)phenoxy)-3,4-dihydroisoquinolin-2(1H)-yl)ethan-1-one]	0.001 to 10
C=CC(=O)N1CCC(C(=O)N2CCc3ccc(Oc4ccc(C(F)(F)F)c(F)c4)cc3C2)C1 (centres unmarked) [P-0119, 1-(3-(7-(3-fluoro-4-(trifluoromethyl)phen-oxy)-1,2,3,4-tetrahydro-isoquinoline-2-carbon-yl)pyrrolidin-1-yl)prop-2-en-1-one]	0.001 to 10
O=C(CC1CS(=O)(=O)C1)N1CCc2ccc(Oc3ccc(C(F)(F)F)cc3)cc2C1 [P-0072, 2-(1,1-dioxidothietan-3-yl)-1-(7-(4-(trifluoro-methyl)phenoxy)-3,4-dihydroisoquinolin-2(1H)-yl)ethan-1-one]	0.001 to 10
CN1CCC(C(=O)N2CCc3ccc(Oc4ccc(C(F)(F)F)c(F)c4)cc3C2)C1 (centres unmarked) [P-0105, (7-(3-fluoro-4-(trifluoro-methyl)phenoxy)-3,4-dihydroisoquinolin-2(1H)-yl)(1-methylpyr-rolidin-3-yl)methanone]	0.001 to 10
Cc1noc(CCC(=O)N2CCc3ccc(Oc4ccc(C(F)(F)F)cc4)cc3C2)n1 [P-0062, 3-(3-methyl-1,2,4-oxadi-azol-5-yl)-1-(7-(4-(trifluoromethyl)phen-oxy)-3,4-dihydroisoquin-olin-2(1H)-yl)propan-1-one]	0.001 to 10
O=C(NC1CCCC1)N1CCc2c(cccc2Oc2ccc(C(F)(F)F)cc2)C1 [P-0232, N-cyclopentyl-5-(4-(trifluoromethyl)phen-oxy)-3,4-dihydroisoquin-oline-2(1H)-carboxamide]	0.001 to 10
O=C(Cc1cocn1)N1CCc2c(cccc2Oc2ccc(C(F)(F)F)cc2)C1 [P-0246, 2-(oxazol-4-yl)-1-(5-(4-(trifluoromethyl)phen-oxy)-3,4-dihydroisoquin-olin-2(1H)-yl)ethan-1-one]	0.001 to 10
COC(=O)CCS(=O)(=O)N1CCc2ccc(Oc3ccc(C(F)(F)F)cc3)cc2C1 [P-0050, methyl 3-((7-(4-(trifluoro-methyl)phenoxy)-3,4-dihydroisoquinolin-2(1H)-yl)sulfonyl)pro-panoate]	0.001 to 10
N#CCCC(=O)N1CCc2c(cccc2Oc2ccc(C(F)(F)F)cc2)C1 [P-0239, 4-oxo-4-(5-(4-(trifluoromethyl)phenoxy)-3,4-dihydroisoquinolin-2(1H)-yl)butanenitrile]	0.001 to 10
O=C(C1CC1)N1CCc2ccc(Oc3ccc(C(F)(F)F)cc3)cc2C1 [P-0015, cyclopropyl(7-(4-(trifluoromethyl)phen-oxy)-3,4-dihydroiso-quinolin-2(1H)-yl)-methanone]	0.001 to 10
C=CC(=O)N1CCC(C2c3cc(Oc4ccc(C(F)(F)F)cc4)ccc3CCN2C(=O)CCS(C)(=O)=O)CC1 (centres unmarked) [P-0223, 1-(4-(2-(3-(methylsulfon-yl)propanoyl)-7-(4-(trifluoromethyl)phen-oxy)-1,2,3,4-tetrahydro-isoquinolin-1-yl)piper-idin-1-yl)prop-2-en-1-one]	0.001 to 10

SMILES	IC50 [µM]
CC(C)NC(=O)N1CCc2ccc(Oc3ccc(C(F)(F)F)cc3)cc2C1 [P-0019, N-isopropyl-7-(4-(trifluoromethyl)phen-oxy)-3,4-dihydroiso-quinoline-2(1H)-carbox-amide]	0.001 to 10
CN(CCC#N)C(=O)N1CCc2ccc(Oc3ccc(C(F)(F)F)cc3)cc2C1 [P-0066]	0.001 to 10
CS(=O)(=O)CCC(=O)N1CCc2ccc(Oc3ccc(C(F)(F)F)cc3)cc2C1C1CCOCC1 (centres unmarked) [P-0211, 3-(methylsulfonyl)-1-(1-(tetrahydro-2H-pyran-4-yl)-7-(4-(trifluorometh-yl)phenoxy)-3,4-dihydro-isoquinolin-2(1H)-yl)-propan-1-one]	0.001 to 10
CS(=O)(=O)CCC(=O)N1CCc2c(cccc2-c2ccc(C(F)(F)F)cc2)C1 [P-0271, 3-(methylsulfonyl)-1-(5-(4-(trifluoromethyl)phen-yl)-3,4-dihydroisoquin-olin-2(1H)-yl)propan-1-one]	0.001 to 10
CN(C)C1CC(C(=O)N2CCc3ccc(Oc4ccc(C(F)(F)F)c(F)c4)cc3C2)C1 (centres unmarked) [P-0111, (3-(dimethylamino)cyclo-butyl)(7-(3-fluoro-4-(trifluoromethyl)phen-oxy)-3,4-dihydroisoquin-olin-2(1H)-yl)methanone]	0.001 to 10
O=C=CCC(=O)N1CCc2ccc(Oc3ccc(C(F)(F)F)cc3)cc2C1 [P-0166, 4-(7-(4-(trifluoromethyl)-phenoxy)-3,4-dihydroiso-quinolin-2(1H)-yl)but-1-ene-1,4-dione]	0.001 to 10
NC(=O)c1ccc(C(=O)N2CCc3ccc(Oc4ccc(C(F)(F)F)cc4)cc3C2)cn1 [P-0127, 5-(7-(4-(trifluorometh-yl)phenoxy)-1,2,3,4-tetrahydroisoquinoline-2-carbonyl)picolinamide]	0.001 to 10
CNC(=O)N1CCc2ccc(Oc3ccc(C(F)(F)F)cc3)cc2C1 [P-0016, N-methyl-7-(4-(trifluoro-methyl)phenoxy)-3,4-dihydroisoquinoline-2(1H)-carboxamide]	0.001 to 10
Nc1nccc(C(=O)N2CCc3ccc(Oc4ccc(C(F)(F)F)cc4)cc3C2)n1 [P-0092, (2-aminopyrimidin-4-yl)-(7-(4-(trifluoromethyl)-phenoxy)-3,4-dihydroiso-quinolin-2(1H)-yl)meth-anone]	0.001 to 10
O=C(CC1CCOC1)N1CCc2ccc(Oc3ccc(C(F)(F)F)cc3)cc2C1 (centres unmarked) [P-0086, 2-(tetrahydrofuran-3-yl)-1-(7-(4-(trifluorometh-yl)phenoxy)-3,4-dihydro-isoquinolin-2(1H)-yl)-ethan-1-one]	0.001 to 10
CCCCNC(=O)N1CCc2ccc(Oc3ccc(C(F)(F)F)cc3)cc2C1 [P-0032, N-butyl-7-(4-(trifluoro-methyl)phenoxy)-3,4-dihydroisoquinoline-2(1H)-carboxamide]	0.001 to 10
CC(C)S(=O)(=O)N1CCc2ccc(Oc3ccc(C(F)(F)F)cc3)cc2C1 [P-0021, 2-(isopropylsulfonyl)-7-(4-(trifluoromethyl)-phenoxy)-1,2,3,4-tetra-hydroisoquinoline]	0.001 to 10
CS(=O)(=O)c1ccc(C(=O)N2CCc3ccc(Oc4ccc(C(F)(F)F)cc4)cc3C2)s1 [P-0084, (5-(methylsulfonyl)thio-phen-2-yl)(7-(4-(trifluoro-methyl)phenoxy)-3,4-dihydroisoquinolin-2(1H)-yl)methanone]	0.001 to 10
CS(=O)(=O)CCC(=O)N1CCc2ccc(Oc3ccc(C(F)(F)F)cc3)cc2C1C1CCC(C(F)(F)F)CC1 (centres unmarked) [P-0212, 3-(methylsulfonyl)-1-(1-(4-(trifluoromethyl)-cyclohexyl)-7-(4-(trifluoromethyl)phen-oxy)-3,4-dihydroisoquin-olin-2(1H)-yl)propan-1-one]	0.001 to 10
C[C@@H](CO)NC(=O)N1CCc2c(cccc2Oc2ccc(C(F)(F)F)cc2)C1 [P-0268, (S)-N-(1-hydroxypropan-2-yl)-5-(4-(trifluorometh-yl)phenoxy)-3,4-dihydro-isoquinoline-2(1H)-carboxamide]	0.001 to 10
O=C(c1cnco1)N1CCc2ccc(Oc3ccc(C(F)(F)F)cc3)cc2C1 [P-0122, oxazol-5-yl(7-(4-(trifluoromethyl)phen-oxy)-3,4-dihydroisoquin-olin-2(1H)-yl)methanone]	0.001 to 10
